Results published in publication PMC10766610, “DCAF1-based PROTACs with activity against clinically validated targets overcoming intrinsic- and acquired-degrader resistance” (Nature Communications, 2024).

How the values were obtained:
[1] = test system: TMD8 cells; experiment: Whole proteomics profile, DBt-10 vs (19), TMD8 cells; assay type: cell-based, human; conditions: 5 µM DBt-10 vs 5 µM (19), 6 h
Experimental: HEK293T and TMD8 cells were cultured according to protocol and 3 million cells were plated per sample and recovered for 24 h. The following day, cells were treated with indicated compounds at corresponding concentrations for 6 h. Cells were then harvested and washed 2× with PBS before removing all liquid and snap freezing in liquid nitrogen before sample preparation for proteomics.
TMT-labeled peptides were generated with the iST-NHS kit (PreOmics) and TMT10plex (duplicates per condition) or TMT18plex (triplicates per condition) reagent (Thermo Fisher Scientific). Equal amounts of labeled peptides were pooled and separated on a high pH fractionation system with a water-acetonitrile gradient containing 10 mM ammonium formate, pH 11[88]. Alternating rows of the resulting 72 fractions were pooled into 24 samples, dried and resuspended in water containing 0.1% formic acid.
The LC-MS analysis was carried out on an EASY-nLC 1200 system coupled to an Orbitrap Fusion Lumos Tribrid mass spectrometer (Thermo Fisher Scientific). […]
LC-MS raw files were analyzed with Proteome Discoverer 2.4 (Thermo Fisher Scientific). […] TMT reporter ions of the MS3 spectra were integrated with a 20 ppm tolerance and the reporter ion intensities were used for quantification. […] Protein relative quantification was performed using an in-house developed R (v.3.6) script. […]

[2] = test system: TMD8 WT and TMD8 CRBN resist. cells; experiment: CellTiter-Glo viability, TMD8 WT vs CRBN resist. cells; assay type: cell-based, human; conditions: CellTiter-Glo proliferation
Experimental: TMD8 cells were grown in the presence of a CRBN-BTK PROTAC CBt using a gradual dose increase. Start treatment was 0.1 nM for 6 weeks, followed by 3 weeks at 0.4 nM and another 4 weeks at 10 nM to finally obtain CBt resistant TMD8 cells (TMD8 CRBN resist.).
d) Viability measured by cell titer-Glo for DBt-10 (green) vs (13) (purple) in WT (solid) vs CRBN resist.
(dotted) TMD8 cells. Data represents average ± standard deviation from n=3 replicates.
e) Repeat of the viability measured by cell titer-Glo for DBt-10 (green) vs (13) (purple) in WT (solid) vs
CRBN resist. (dotted) TMD8 cells with adjusted dose response range. Data represents average ±
standard deviation from n=3 replicates.
Source data are provided as a Source Data file

[3] = target: T1, CSK (Homo sapiens, UniProt P41240); experiment: Immunoblot of CSK in HEK293T cells; assay type: cell-based; conditions: 6 h
T1 construct: host or cells: HEK293T
Experimental: Whole cell lysates for immunoblotting were prepared by pelleting cells at 4 °C (300 g) for 3 min. Cell pellets were then washed 1x with PBS and resuspended in RIPA lysis buffer (VWR, cat # 97063-270) supplemented with protease (Thermo Scientific, cat # A32955) and phosphatase (Thermo Scientific, cat # A32957) inhibitor tablets. Lysates were clarified at 16,000 × g for 15 min at 4 °C prior to quantification by Lowry assay (Bio-Rad cat # 5000113 and cat # 5000114). Whole-cell lysates were loaded into 4–20% Criterion TGX Precast 18 well gels (Bio-Rad, cat # 5671094) and separated by electrophoreses at 120 V for 1 h. The gels were transferred to a nitrocellulose membrane using the Trans-Blot Turbo (Bio-Rad) for 7 min and then blocked for 1 h at room temperature in Odyssey blocking buffer (LICOR Biosciences, cat # 927-50000). Membranes were probed with the appropriate primary antibodies (diluted 1:1000) overnight at 4 °C in 20% Odyssey blocking buffer in 1x TBST. Membranes were washed three times with 1x TBST (5 min per wash), and then incubated with IRDye goat anti-mouse (LICOR, cat # 926-32210) or goat anti-rabbit (LICOR, cat # 926-32211) secondary antibody diluted 1:10,000 in 20% Odyssey blocking buffer for 1 h at room temperature. After three 5-min washes with 1x TBST, the immunoblots were visualized using the ODYSSEY Infrared Imaging System (LICOR). […]

T1 sequence (P41240 whole entry): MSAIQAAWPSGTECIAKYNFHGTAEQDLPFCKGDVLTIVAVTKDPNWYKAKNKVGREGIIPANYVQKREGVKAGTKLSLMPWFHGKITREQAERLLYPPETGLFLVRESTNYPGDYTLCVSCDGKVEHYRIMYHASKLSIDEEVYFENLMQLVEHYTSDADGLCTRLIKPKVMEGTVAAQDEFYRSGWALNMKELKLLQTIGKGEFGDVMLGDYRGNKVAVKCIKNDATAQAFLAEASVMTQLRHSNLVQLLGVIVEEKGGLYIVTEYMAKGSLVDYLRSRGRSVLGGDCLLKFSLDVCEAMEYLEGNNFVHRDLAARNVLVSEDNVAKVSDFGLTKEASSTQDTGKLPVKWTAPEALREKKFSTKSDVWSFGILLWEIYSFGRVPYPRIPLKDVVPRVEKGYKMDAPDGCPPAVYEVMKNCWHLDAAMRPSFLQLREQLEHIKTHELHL

Structure (SMILES) | only other protein with significantly reduced abundance (proteomics) [1] | strongest reduced protein (proteomics) [1] | relative potency change between CBt sensitive and resistant TMD8 cells [2] | CSK protein levels [3]
Cc1c(NC(=O)N2CC(O)(CC(C)(C)C)C2)cc(F)cc1-c1ncnc2[nH]c(-c3cnn(CC(=O)N4CCC5(CC4)CN(CCNC(=O)CCCC(=O)N4CCN(c6ccc7c(NCCN)nc(C8(c9ccc(Cl)cc9)CCCCC8)nc7c6)CC4)CCO5)c3)cc12 [DBt-10] | LIM domain kinase 1 (LIMK1) | BTK | did not show any relative potency differences | –
Cc1nc(Nc2ncc(C(=O)Nc3c(C)cccc3Cl)s2)cc(N2CCC(OC3CCN(CCCCCCCC(=O)N4CCN(c5ccc6c(NCCN)nc(C7(c8ccc(Cl)cc8)CCCCC7)nc6c5)CC4)CC3)CC2)n1 [DDa-1] | – | – | – | significant reduction in protein levels
